We go through two compounds from publication PMC6385358, “Discovery of ((1,2,4-oxadiazol-5-yl)pyrrolidin-3-yl)ureidyl derivatives as selective non-steroidal agonists of the G-protein coupled bile acid receptor-1” (Scientific Reports, 2019).

What all share (conditions): 10 μM
The target in one data set is T1, PXR (Homo sapiens, UniProt O75469).
T1 construct: host or cells: HepG2
T1 sequence (O75469 1-434): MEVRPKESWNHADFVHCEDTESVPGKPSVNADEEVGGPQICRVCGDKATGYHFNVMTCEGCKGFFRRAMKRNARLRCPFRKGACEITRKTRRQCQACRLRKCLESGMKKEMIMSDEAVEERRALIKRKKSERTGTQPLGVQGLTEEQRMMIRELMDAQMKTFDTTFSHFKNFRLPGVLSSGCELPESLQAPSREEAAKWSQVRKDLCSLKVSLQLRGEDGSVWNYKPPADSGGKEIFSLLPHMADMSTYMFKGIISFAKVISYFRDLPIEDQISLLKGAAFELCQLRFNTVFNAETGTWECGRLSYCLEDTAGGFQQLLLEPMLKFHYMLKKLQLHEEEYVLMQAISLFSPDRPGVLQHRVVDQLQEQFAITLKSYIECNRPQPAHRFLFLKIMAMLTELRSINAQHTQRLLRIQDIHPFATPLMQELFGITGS
Kind of data set: Luciferase reporter specificity assay versus PXR on HepG2 cells. Format: cell-based. As to the method: (§1) The activity of compounds 1–14 on GPBAR1 was evaluated in a luciferase reporter assay using HEK-293T cells transfected with GPBAR1. The efficacy of tested compounds (Table 1) was measured using taurolithocholic acid (TLCA) as GPBAR1 reference compound[10],[11]. Each compound was tested at the concentration of 10 μM and transactivation activity of TLCA on a cAMP responsive element (CRE) (i.e. TGR5/GPBAR1) was considered equal to 100%. […] Thus, 9 and 10 (Table 1) turned out to be the most promising derivatives considering their low EC50 values and high activity efficacy. To further characterize the pharmacological properties of these compounds, we expanded their in vitro profile to common off-targets for bile acid receptor ligands.
(§2) Figure 3 (A) Dose response curves of compounds 9 and 10 (concentrations ranging from 1 to 50 µM) in luciferase reporter assay. (B) Real-time PCR analysis of mRNA expression of Pro-glucagon in GLUTag cells treated with compounds 9 and 10 at 10 μM, and TLCA used as a positive control (10 μM). Values are normalized to GAPDH and are expressed relative to those of not treated cells (NT) which are arbitrarily settled to 1. The relative mRNA expression is expressed as 2^(−ΔΔCt). […]
(§3) The specificity of compounds 9 and 10 versus PPARα, PPARγ, LXRα, LXRβ, FXR and PXR was determined in luciferase reporter gene assays as previously reported[29],[31].
A general note: In a reporter assay the amount or activity of a reporter protein is the signal.

The test system of data set [1] is pro-glucagon mRNA in GLUTag cells. Kind of data set: RT-PCR of pro-glucagon mRNA expression in GLUTag cells. Format: cell-based, mouse. Here is the method: as §1
Figure 3 (A) Dose response curves of compounds 9 and 10 (concentrations ranging from 1 to 50 µM) in luciferase reporter assay. (B) Real-time PCR analysis of mRNA expression of Pro-glucagon in GLUTag cells treated with compounds 9 and 10 at 10 μM, and TLCA used as a positive control (10 μM). Values are normalized to GAPDH and are expressed relative to those of not treated cells (NT) which are arbitrarily settled to 1. The relative mRNA expression is expressed as 2^(−ΔΔCt). (C) Specificity of compounds 9 and 10 at 10 μM dose in luciferase reporter assays versus PPARα and PPARγ using Gemfibrozil (GEM, 10 μM) and Rosiglitazone (ROSI, 100 nM) as positive controls respectively. (D) Specificity of compounds 9 and 10 at 10 μM in luciferase reporter assays versus LXRα and LXRβ using GW3965 (GW, 10 μM) as positive control. (E) Specificity of compounds 9 and 10 at 10 μM in luciferase reporter assays versus FXR using CDCA (10 μM) as positive control; (F) Specificity of compounds 9 and 10 at 10 μM in luciferase reporter assays versus PXR using Rifaximin (Rifax, 10 μM) as positive control.
Evaluation of proglucagon mRNA expression was performed in RT-PCR on GLUTag cells (1 × 10^6 cells/well in a 6 well plate) as previously reported[34],[47]. The relative mRNA expression was calculated and expressed as 2^−(ΔΔCt). […]

A further data set addresses T2, LXRα (Homo sapiens, UniProt Q13133).
T2 construct: host or cells: HepG2
T2 sequence (Q13133 1-447): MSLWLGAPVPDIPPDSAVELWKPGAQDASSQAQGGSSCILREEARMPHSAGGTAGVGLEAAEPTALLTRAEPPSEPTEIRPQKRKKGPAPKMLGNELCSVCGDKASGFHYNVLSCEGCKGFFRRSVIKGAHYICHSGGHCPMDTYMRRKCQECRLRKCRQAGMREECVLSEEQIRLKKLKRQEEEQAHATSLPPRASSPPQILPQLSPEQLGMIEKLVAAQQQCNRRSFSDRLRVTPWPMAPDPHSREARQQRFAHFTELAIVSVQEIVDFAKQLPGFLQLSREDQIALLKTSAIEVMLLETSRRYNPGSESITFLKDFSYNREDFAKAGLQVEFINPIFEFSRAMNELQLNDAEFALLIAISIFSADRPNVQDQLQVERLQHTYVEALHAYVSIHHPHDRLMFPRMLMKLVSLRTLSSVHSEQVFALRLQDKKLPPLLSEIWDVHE
The experiment in a line: Luciferase reporter specificity assay versus LXRα on HepG2 cells. It is filed as cell-based. Here is the method:
as §1, §2, §3

The next data set addresses T3, PPARα (Homo sapiens, UniProt Q07869).
T3 construct: host or cells: HepG2
T3 sequence (Q07869 1-468): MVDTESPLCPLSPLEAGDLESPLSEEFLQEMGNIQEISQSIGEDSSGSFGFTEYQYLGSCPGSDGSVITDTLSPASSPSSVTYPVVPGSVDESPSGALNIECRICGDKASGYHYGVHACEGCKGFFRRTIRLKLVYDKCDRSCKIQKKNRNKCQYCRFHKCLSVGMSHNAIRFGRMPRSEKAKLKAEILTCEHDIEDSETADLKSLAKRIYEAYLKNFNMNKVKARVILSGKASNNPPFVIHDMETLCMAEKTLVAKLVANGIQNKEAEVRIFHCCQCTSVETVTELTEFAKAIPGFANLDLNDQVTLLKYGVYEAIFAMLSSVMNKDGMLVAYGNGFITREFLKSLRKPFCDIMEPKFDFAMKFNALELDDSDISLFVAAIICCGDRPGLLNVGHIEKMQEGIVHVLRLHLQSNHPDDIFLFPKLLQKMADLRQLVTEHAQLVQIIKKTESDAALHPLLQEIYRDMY
Kind of data set: Luciferase reporter specificity assay versus PPARα on HepG2 cells. Format: cell-based. As to the method: as §1, §2, §3

Regarding `O=C(Nc1ccc(Cl)cc1)N[C@@H]1CN[C@H](c2nc(-c3ccccc3)no2)C1` [Compound 9], the PXR transactivation result at PXR is listed as “unable to induce”. The “Induction of pro-glucagon mRNA expression” value in data set [1] is recorded as “effective in inducing the expression of pro-glucagon mRNA”. Also, the LXRα transactivation entry on LXRα was “unable to induce”. Also, the PPARα transactivation entry on PPARα is listed as “unable to induce”.
On to `O=C(NC1CCCCC1)N[C@@H]1CN[C@H](c2nc(-c3ccccc3)no2)C1` [Compound 10], for which, on PXR, the PXR transactivation result was “unable to induce”. Besides, in data set [1], the “Induction of pro-glucagon mRNA expression” value was “effective in inducing the expression of pro-glucagon mRNA”. Further, the “Efficacy in inducing pro-glucagon mRNA expression compared with TLCA” value in data set [1] (TLCA 10 μM) is recorded as “same efficacy of TLCA”. Further, the LXRα transactivation entry on LXRα is “unable to induce”. The PPARα transactivation result on PPARα is recorded as “unable to induce”.
